Measurements reported in patent publication US11426372B2, “Glycolic acid protects against ischemic insults” (priority 2015, dated 2022).
“Also recorded” adds a separate entry of the source.

Key:
primary cortical neurons = test: In vitro model of stroke: nuclear size (apoptotic nuclei) of cortical neurons 24 hours after ischemia; assay type: cell-based, mouse; settings: for number of apoptotic neurons (nuclear size <30 μm2): vs non-treated neurons during ischemia
Procedure: (§1) In order to mimic neuronal ischemia in vitro, primary cortical neurons were culture in vitro for 6 days. After this time either a total ischemia or a partial ischemia were performed.
(§2) Total ischemia: on the day of ischemia medium was changed to PBS (pH=6.5) that had been previously bubbled with N2 to remove all O2. In the case of total ischemia, in order to ensure total lack of oxygen in the PBS, dithionite was added to the PBS to capture the remaining diluted O2. This process ensured the absence of both nutrients and O2 as it would be expected at the core of a stroke.
(§3) Penumbra: to mimic penumbra, normal medium was changed to a mixture of medium without antioxidants and PBS (50:50) and bubbled with N2 to remove diluted O2.
(§4) In both protocols neurons were then placed inside a gas chamber filled with N2 and left there for 45 minutes (ischemia) or 1 hour (penumbra). In order to mimic reperfusion, PBS or medium/PBS were then substituted with medium without antioxidants and left in the incubator overnight.
(§5) Normoxia: to mimic normoxia, normal medium was changed with normal medium without antioxidants and placed in the incubator under normal conditions for 45 minutes or 1 hour. Then medium was exchanged again with normal medium and left overnight in the incubator.
(§6) In all conditions neurons were fixed and stained with DRAQS (a nuclear marker) and NeuN (a neuronal marker) on the next day. Images were taking with an OPERA microscope and analysed with the help of FIJI Image analysis software. The more reliable outcome parameter to detect apoptosis was the surface of the nuclei in μm2 and the number of neurons alive after 24 hours. As it can be observed in FIGS. 1 and 2, the frequency distribution of nuclear sizes dramatically changed between normoxia and ischemia without treatment.

mouse cortical neurons [1] = test: In vitro model of stroke: number of cortical neurons alive / survival rate 24 hours after ischemia; assay type: cell-based; settings: for survival rate of mouse cortical neurons 24 hours after ischemic insult: 45 minutes ischemic insult, P<0.05; for number of cortical neurons alive / survival rate 24 hours after ischemia: penumbra like conditions, 60 minutes ischemic insult, P<0.001
Procedure: as §1, §2, §3, §4, §5, §6

mouse cortical neurons [2] = test: In vitro model of stroke: LDH released to the media (PIERCE LDH cytotoxicity assay); assay type: cell-based; settings: for concentration of LDH in the media 24 hours after the ischemic insult: 45 minutes ischemic insult, vs ischemic non-treated neurons, p<0.05
Procedure: as §1, §2, §3, §4, §5
Additionally, the amount of LDH released to the media was determined. LDH is released to the media during necrosis (immediate cell death after an insult, 0-6 hours after insult) and in the late stages of apoptosis in vitro (6 to 24 hours after insult) through the disruption of the plasmatic membrane. For this we used the PIERCE LDH CYTOTOXICITY ASSAY from Life Technologies.

Mice [3] = test: Transient filament MCA occlusion model (fMCAo) with infarct volumetry; assay type: in vivo, mouse
Source text: Transient filament MCA occlusion model (fMCAo): Mice are anaesthetized with isoflurane delivered in a mixture of 30% O2 and 70% N2O. An incision is made between the ear and the eye in order to expose the temporal bone. A laser Doppler probe is affixed to the skull above the MCA territory, and mice are placed in the supine position. An incision is made in the midline neck region, and the common carotid artery and left external carotid artery are isolated and ligated; a 2-mm silicon-coated filament (Doccol, #701912PKRe) is inserted into the internal carotid artery, and MCA occlusion is confirmed by a corresponding decrease in blood flow (i.e., a decrease in the laser Doppler flow signal). After 60 minutes of occlusion the filament is removed and either the vehicle, or 5, 10, 20 or 40 mM of GA (concentration for the total expected infact area) is injected. […]
Infarct volumetry: Brains are removed 24 and 72 hours after stroke induction and frozen on powdered dry ice. […] Infarct area is measured in each section using ImageJ software (NIH). In the fMCAo model, an edema correction for infarct volume is calculated using the following formula: (Ischemic area)=(Direct lesion volume)−[(Ipsilateral hemisphere)−(Contralateral hemisphere)] was performed. The total infarct volume is calculated by integrating the measured areas and intervals between the sections.

mouse hearts = test: Ischaemia-reperfusion in perfused hearts (Langendorff); settings: 60 min global ischaemia, 60 min reperfusion with 5, 10, 20 or 40 mM glycolic acid
Procedure: Ischaemia-reperfusion in perfused hearts: Ischemia reperfusion in perfused hearts is performed. After sodium pentobarbital overdose (150 mg/kg i. p.), mouse hearts are quickly excised and perfused through the aorta in a Langendorff apparatus with a modified Krebs-Henseleit bicarbonate buffer (in mmol/l: 140 NaCl, 24 NaHCO3, 2.7 KCl, 0.4 KH2PO4, 1 MgSO4, 1.8 CaCl2 and 11 glucose, 95% O2-5% CO2 at 37° C.) at constant flow perfusion pressure of 80 mmHg. Left ventricular (LV) pressure is monitored with a water-filled latex balloon inserted into the LV and inflated to obtain an end-diastolic pressure (LVEDP) of 6-8 mmHg. LV developed pressure (LVdevP) is calculated as the difference between LV systolic pressure and LVEDP. After 30 minutes (min) of normoxic perfusion, mouse hearts are subjected to 60 min of normothermic global ischaemia followed by 60 min of reperfusion with vehicle or 5, 10, 20 or 40 mM glycolic acid. Lactate dehydrogenase (LDH) activity is spectrophotometrically measured in samples collected from the coronary effluent at different times throughout the perfusion period and was considered an indirect measure of necrosis. After 60 min of reperfusion, heart slices were incubated in […] to outline the area of necrosis. Hearts submitted to normoxic perfusion during 120 min served as time control series. […]

cardiomyocytes = test: Ischaemia-reperfusion in isolated cardiomyocytes; assay type: cell-based, mouse; settings: simulated ischaemia-reperfusion
Procedure: Ischaemia-reperfusion in isolated cardiomyocytes: Freshly isolated cardiomyocytes are obtained from mouse hearts by retrograde collagenase perfusion. Rhod-shaped calcium tolerant cardiomyocytes are selected by differential centrifugation and albumin gradient and are plated on laminin-coated glass bottom coverslips (for confocal studies) or on 4% fetal calf serum pretreated multiwell dishes. To simulate IR in cardiomyocytes, two independent approaches are used: anoxic workstation under controlled atmosphere of 0% 02-5% H2 at 37° C. (Invivo2 Workstation Ruskinn, Bridgend, UK) and microscope-adapted microperfusion chamber (RC-43C/BS4 64-0371 Harvard Apparatus, Holliston, Mass., USA). For the anoxic workstation, cardiomyocytes are plated in 96-wells dishes, placed within the anoxic atmosphere and incubated for 15 min with glucose-free acidic ischaemic buffer (previously deoxygenated in an autoclave and bubbled with N2 for 20 min) containing (in mmol/l): 140 NaCl, 3.6 KCl, 1.2 MgSO4, 1 CaCl2, 20 HEPES, pH 6.4, and supplemented with 4 μmol/l resazurin, 100 μmol/l ascorbic acid, 0.5 mmol/l dithionite and 100 U/ml superoxide dismutase. For reperfusion, ischaemic buffer is washed out and oxygenated, glucose-containing control buffer (pH 7.4) is added for 10 min. […]

Mice [4] = test: In vivo model of limb ischemia (unilateral femoral ligatures); parameters: species or system mouse; settings: injected systemically when ligatures are removed or before ligation
Procedure: In vivo model of limb ischemia: Mice are submitted to unilateral femoral ligatures for a few hours (4-5) to a few days. Glycolic acid or vehicle are injected systemically when the ligatures are removed. Alternatively, glycolic acid is given before ligation systemically. Ischemia is confirmed by clinical scores (tissue and functional damages by gait analysis) and methoxyisobutylisonitrile (MIBI) scintigraphies at different days 0, 4, 6, 10, 20, and 30. Histological analysis is also performed to determine the extension of the ischemia.

Rabbits = test: Model of intestinal ischemia (mesenteric ligation); assay type: in vivo, rabbit; settings: injected intraarterially upon removal of the ligation or systemically before ligation
Procedure: Rabbits are anesthetized with 3% barbital, 30-35 mg/intravenous injections. The small intestine is reflected to the left of the abdominal incision and then the SMA and SMV are identified. Mesenteric ischemia is confirmed when the mesenteric pulsation is lost and the intestine becomes pale. Ligation is maintained for 2, 4 and 6 hours. […] After removing the ligation, the animal is led free for 1 and 3 days and then is intracardially perfused. Intestinal samples are embedded in paraffin and sections are stained with a nuclear staining. Nuclear size distribution is analysed in different ischemic areas and compared to that of non-ischemic areas.

[5] = estimated; cited from earlier work

O=C(O)CO [glycolic acid, 2-hydroxyethanoic acid]
more normal size nuclei (nuclear surface >30 μm2) 24 hours after ischemia (primary cortical neurons; 5 mM pretreatment or 10 and 20 mM during reperfusion, vs control neurons that underwent ischemia without treatment): up to 65% | number of apoptotic neurons (nuclear size <30 μm2) (primary cortical neurons; 10 mM during reperfusion, p<0.01): reduces the number of apoptotic neurons | shift of the nuclear size to smaller apoptotic nuclei induced by ischemia (primary cortical neurons; 10 mM glycolic acid during reperfusion): partially reversed | number of apoptotic neurons (nuclear size <30 μm2) (primary cortical neurons; 20 mM during reperfusion, p<0.01): reduces the number of apoptotic neurons | shift of the nuclear size to smaller apoptotic nuclei induced by ischemia (primary cortical neurons; 20 mM glycolic acid during reperfusion): partially reversed | shift of the nuclear size to smaller apoptotic nuclei induced by ischemia (primary cortical neurons; 4 days pretreatment with 5 mM glycolic acid): partially reversed | protective effect (rescue) (primary cortical neurons; penumbra conditions): 100% | number of apoptotic neurons (nuclear size <30 μm2) (primary cortical neurons; pre-treatment with 5 mM, p<0.05): reduces the number of apoptotic neurons | shift of the nuclear size to smaller apoptotic nuclei induced by ischemia (primary cortical neurons; pretreatment with 2.5 mM glycolic acid): partially reversed | survival rate of mouse cortical neurons 24 hours after ischemic insult (mouse cortical neurons [1]; 2.5 mM during reperfusion): increases the survival rate | survival rate of mouse cortical neurons 24 hours after ischemic insult (mouse cortical neurons [1]; 5 mM during reperfusion): increases the survival rate | survival rate of mouse cortical neurons 24 hours after ischemic insult (mouse cortical neurons [1]; 5 mM during reperfusion, listed as GA): enough to rescue the effect of the ischemia | number of cortical neurons alive / survival rate 24 hours after ischemia (mouse cortical neurons [1]; 10 mM during reperfusion): increased cortical neurons survival; also recorded: increases the survival rate | number of cortical neurons alive / survival rate 24 hours after ischemia (mouse cortical neurons [1]; 20 mM during reperfusion): increases the survival rate | survival of mouse cortical neurons (mouse cortical neurons [1]; concentrations lower than 5 mM given during reperfusion (data not shown)): did not increase survival | neuronal cell death / protection against ischemia, 24 hours after ischemia (mouse cortical neurons [1]; mouse cortical neurons, vs non-treated neurons undergoing ischemia, applied before ischemia or during reperfusion): protects neurons from ischemia; also recorded: significantly decreases neuronal cell death; also recorded: protects against different degrees of ischemia both when applied before or after the acute ischemic insult | protection of neurons in normoxia conditions (mouse cortical neurons [1]; pretreatment with 2.5 mM): protects neurons against the adverse conditions inherent to an in vitro setting | protection of neurons in normoxia conditions (mouse cortical neurons [1]; pretreatment with 5 mM): protects neurons against the adverse conditions inherent to an in vitro setting | concentration of LDH in the media 24 hours after the ischemic insult (mouse cortical neurons [2]; 2.5 mM during reperfusion): decrease the concentration of LDH significantly; also recorded: reduces apoptosis | concentration of LDH in the media 24 hours after the ischemic insult (mouse cortical neurons [2]; 5 mM during reperfusion): decrease the concentration of LDH significantly; also recorded: reduces apoptosis | concentration of LDH in the media (mouse cortical neurons [2]; concentrations lower than 5 mM given during reperfusion): decreased the concentration of LDH in the media | effect on LDH levels in normoxia (mouse cortical neurons [2]; normoxic conditions, 2.5 and 5 mM): did not observe any difference between treatments; also recorded: cannot be observed | decrease in blood flow (Mice [3]; 5, 10, 20 or 40 mM GA injected after 60 minutes of occlusion): less severe decrease in blood flow | infarct volume (Mice [3]; brains removed 24 and 72 hours after stroke induction): reduce the infarct volume size | necrosis (LDH activity, area of necrosis) (mouse hearts): reduced necrosis compared to controls | number of cardiomyocytes alive 24 hours after ischemia (cardiomyocytes): increased number of cardiomyocytes alive | extension of the ischemia and cell death (Mice [4]): reduce the extension of the ischemia and cell death | number of apoptotic nuclei and ischemic areas (Rabbits): reduce the number of apoptotic nuclei and the ischemic areas

OCCOCCO [diethylene glycol]
minimum toxic dose [5]: 0.14 mg glycolic acid per kg of body weight
